Experiments:
[1] = system: Herpes simplex virus Type II strain 333; test: Antiviral activity in guinea pigs infected with Herpes simplex virus Type II (lesion inhibition); format: in vivo; conditions: oral once daily for four days, dose 2 mg/kg
Description: Female Hartley guinea pigs weighing 200 to 250 g are anesthetized with methoxyflurane (available under the […] from Pitman-Moore, Inc., Washington Crossing, N.J.), after which the vaginal area is swabbed with a dry cotton swab. The guinea pigs are then infected intravaginally with a cotton swab saturated with Herpes simplex virus Type II strain 333 (1×10^5 plaque forming units/mL). Guinea pigs are assigned to groups of 7 animals; one group for each treatment and one to serve as a control (vehicle treated). The compounds of the invention are formulated in water containing 5% Tween 80 (a polyoxyethylene sorbitan monooleate available from Aldrich Chemical Company, Inc., Milwaukee, Wis.). The, guinea pigs are treated orally once daily for four consecutive days starting 24 hours after infection. Antiviral activity is evaluated by comparing lesion development in compound-treated versus vehicle-treated guinea pigs. […] The maximum lesion score of each guinea pig is used to calculate the percentage lesion inhibition. The percentage lesion inhibition is calculated as follows: […]

interferon [2] = test: Interferon induction in guinea pigs (serum interferon titer); format: in vivo; conditions: guinea pig serum 24 hours after initial oral dose, 2 mg/kg
Description: Female Hartley guinea pigs weighing 200 to 250 g are anesthetized with methoxyflurane (available under the […] from Pitman-Moore, Inc., Washington Crossing, N.J.), after which the vaginal area is swabbed with a dry cotton swab. The guinea pigs are then infected intravaginally with a cotton swab saturated with Herpes simplex virus Type II strain 333 (1×10^5 plaque forming units/mL). Guinea pigs are assigned to groups of 7 animals; one group for each treatment and one to serve as a control (vehicle treated). The compounds of the invention are formulated in water containing 5% Tween 80 (a polyoxyethylene sorbitan monooleate available from Aldrich Chemical Company, Inc., Milwaukee, Wis.). The, guinea pigs are treated orally once daily for four consecutive days starting 24 hours after infection. Twenty-four hours after the initial dose of test compound has been administered, blood is obtained from 3 guinea pigs from each treatment group by cardiac puncture of methoxyflurane anesthetized animals. Blood is pooled and allowed to clot at room temperature. After low speed centrifugation, serum is collected and stored at -70° C. until analysis. Interferon levels in the guinea pig serum are determined in a standard microtiter assay using transformed guinea pig cells (ATCC CRL 1405). The interferon assay is done in 96 well microtiter plates. Confluent monolayers of transformed guinea pig cells are treated with dilutions of guinea pig serum made with medium 199 (GIBCO, Grand Island, N.Y.). The cell and serum dilutions are incubated at 37° C. overnight. The following day, the medium and serum are removed and about 10 plaque forming units of Mengovirus are added to each well. Controls consist of wells that receive no guinea pig serum (virus positive control) and wells that receive no virus (virus negative control). Cells and virus are incubated for 2 to 3 days at 37° C. before quantifying for viral cytopathic effect. The viral cytopathic effect is quantified by staining with 0.05% crystal violet followed by spectrophotometric absorbance measurements. The titer of interferon in serum is expressed as units/mL and is the reciprocal of the highest dilution that protects cells from virus.

interferon-α [3] = test: Interferon-α induction in human cells, PBM; format: cell-based; conditions: 24 hours
interferon [4] = test: Interferon induction in mice; format: in vivo; conditions: mouse serum
Outline: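 Mouse serum collected at 1, 2 and 4 h (separate groups), pooled, stored at −70° C, then assayed as for human-cell interferon. Values in α/β reference units/mL against a mouse MU-1-IF standard; "<" marks levels below assay sensitivity.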

interferon-α [5] = test: Interferon-α induction in human cells, diluted whole blood; format: cell-based; conditions: 24 hours
MC-26 colon tumor cells = test: Inhibition of MC-26 tumors in mice, 14 day lung colony count; format: in vivo; conditions: lung colonies day 14, 4×10^4 MC-26 cells i.v., oral 30 mg/kg on days 3-7 and 10-14; control 385 ± 31
Experimental: The mice are sacrificed 14 days later. […] Five mice are in each treatment group and comparisons are made to controls. […] The mice in the control groups were dosed orally with saline (10 mL/kg) on days 3, 4, 5, 6, and 7, and with water (10 mL/kg) on days 10, 11, 12, 13, and 14.

Row | Compound | % Lesion Inhibition [1] [%] | Interferon-α induction (interferon-α [3]; dose concentration 0.01 μg/mL) | Interferon-α induction (interferon-α [3]; dose concentration 0.05 μg/mL) | Interferon-α induction (interferon-α [3]; dose concentration 0.10 μg/mL) | Interferon-α induction (interferon-α [3]; dose concentration 0.50 μg/mL) | Interferon-α induction (interferon-α [3]; dose concentration 1.0 μg/mL) | Interferon-α induction (interferon-α [3]; dose concentration 5.0 μg/mL) | Interferon induction in mice (interferon [4]; oral 1 mg/kg, 1 hr) [Reference Units/mL] | Interferon induction in mice (interferon [4]; oral 1 mg/kg, 2 hr) [Reference Units/mL] | Interferon induction in mice (interferon [4]; oral 1 mg/kg, 4 hr) | Interferon induction in mice (interferon [4]; oral 3 mg/kg, 1 hr) | Interferon induction in mice (interferon [4]; oral 3 mg/kg, 2 hr) | Interferon induction in mice (interferon [4]; oral 3 mg/kg, 4 hr) [Reference Units/mL] | Interferon induction in mice (interferon [4]; oral 10 mg/kg, 1 hr) [Reference Units/mL] | Interferon induction in mice (interferon [4]; oral 10 mg/kg, 2 hr) | Interferon induction in mice (interferon [4]; oral 10 mg/kg, 4 hr) | Interferon induction in mice (interferon [4]; oral 30 mg/kg, 1 hr) [Reference Units/mL] | Interferon induction in mice (interferon [4]; oral 30 mg/kg, 2 hr) [Reference Units/mL] | Interferon induction in mice (interferon [4]; oral 30 mg/kg, 4 hr) [Reference Units/mL] | Interferon induction in mice (interferon [4]; oral 0.3 mg/kg, 1 hr) | other results
1 | CC(C)Cn1c(CO)nc2c(N)nc3ccccc3c21 [Example 9, 4-Amino-1-(2-methylpropyl)-1H-imidazo-[4,5-c]quinoline-2-methanol] | 37 | <1.8 α Reference Units/mL | 16 α Reference Units/mL | 140 α Reference Units/mL | 750 α Reference Units/mL | 750 α Reference Units/mL | 750 α Reference Units/mL | <47 | <47 | <47 Reference Units/mL | ≦47 Reference Units/mL | ≦47 Reference Units/mL | <47 | 330 | 740 Reference Units/mL | ≦47 Reference Units/mL | 2900 | 5000 | 4 | – | Reference Units/mL (interferon in serum) (interferon [2]): 266 Units/mL
2 | CC(C)Cn1c(C(C)O)nc2c(N)nc3ccccc3c21 (stereo not drawn) [Example 20, 4-Amino-α-methyl-1-(2-methylpropyl)-1H-imidazo[4,5c]-quinoline-2-methanol] | 100 | <1.8 α Reference Units/mL | 190 α Reference Units/mL | 190 α Reference Units/mL | 1000 α Reference Units/mL | 1000 α Reference Units/mL | 1000 α Reference Units/mL | 140 | 560 | <47 Reference Units/mL | 970 Reference Units/mL | 1200 Reference Units/mL | 140 | 2200 | 5000 Reference Units/mL | 100 Reference Units/mL | 2200 | 8700 | 320 | – | Interferon-α induction (interferon-α [5]; dose concentration 0.10 μg/mL): 85 α Reference Units/mL; Interferon-α induction (interferon-α [5]; dose concentration 0.50 μg/mL): 440 α Reference Units/mL; Interferon-α induction (interferon-α [5]; dose concentration 1.0 μg/mL): 250 α Reference Units/mL; Interferon-α induction (interferon-α [5]; dose concentration 5.0 μg/mL): 190 α Reference Units/mL
3 | COCc1nc2c(N)nc3ccccc3c2n1CC(C)C [Example 34, 2-Methoxymethyl-1-(2-methylpropyl)-1H-imidazo[4,5-c]quinolin-4-amine] | – | <4 α Reference Units/mL | <4 α Reference Units/mL | 1600 α Reference Units/mL | 550 α Reference Units/mL | 180 α Reference Units/mL | 200 α Reference Units/mL | 140 | 320 | ≦61 Reference Units/mL | 420 Reference Units/mL | 420 Reference Units/mL | 140 | 1100 | 1100 Reference Units/mL | 180 Reference Units/mL | – | – | – | ≦61 Reference Units/mL | Interferon induction in mice (interferon [4]; oral 0.3 mg/kg, 2 hr): ≦61 Reference Units/mL; Interferon induction in mice (interferon [4]; oral 0.3 mg/kg, 4 hr): ≦61 Reference Units/mL; Number of Colonies (MC-26 colon tumor cells): 196 ± 20
4 | COCCn1c(COC)nc2c(N)nc3ccccc3c21 [Example 37, 1-(2-Methoxyethyl)-2-methoxymethyl-1H-imidazo[4,5-c]quinolin-4-amine] | – | – | – | <4 α Reference Units/mL | 2500 α Reference Units/mL | 2500 α Reference Units/mL | 210 α Reference Units/mL | <120 | <120 | <120 Reference Units/mL | <120 Reference Units/mL | <120 Reference Units/mL | <120 | 270 | ≦270 Reference Units/mL | ≦270 Reference Units/mL | – | – | – | <120 Reference Units/mL | Interferon induction in mice (interferon [4]; oral 0.3 mg/kg, 2 hr): <120 Reference Units/mL; Interferon induction in mice (interferon [4]; oral 0.3 mg/kg, 4 hr): <120 Reference Units/mL; Number of Colonies (MC-26 colon tumor cells): 123 ± 31
